Measurements taken from patent US9982005B2, “Macrolides and methods of their preparation and use” (President and Fellows of Harvard College, priority 2013, dated 2018).
Converted amounts (≈) assume the structure as drawn. Where two headings read alike, the source gives them in different places.

Key:
Type in all cases: cell-based
E. coli strains = test: MIC against E. coli strains (Table M7); details: for MIC: Escherichia coli, ATCC25922, E. coli ATCC 25922
From the text: (§1) We have collected MIC data for a total of 50 novel macrolides that this platform has produced against over 21 unique strains of B. subtilis, E. coli, S. aureus, S. pneumoniae, and H. influenzae, including several multidrug-resistant strains, with a special focus on macrolide resistant mechanisms (vide supra). Azithromycin was included as a control macrolide. CLSI standard procedures for broth dilution MIC determination were used. […] These genotypes can be constitutive or inducible. The finding that C4-epi (unnatural) isomers of the “azaketolide” macrolide class have enhanced activities relative to C4 natural isomers is very exciting.

A. baumannii strains = test: MIC against A. baumannii strains (Table M8); details: for MIC: Acinetobacter baumannii, BAA747, A. baumannii BAA747-1
S. pneumoniae strains = test: MIC against S. pneumoniae strains (Tables M7, M8); details: for MIC: Streptococcus pneumoniae
From the text: CLSI standard procedures for broth dilution MIC determination were used. […] These genotypes can be constitutive or inducible.

H. influenzae strains = test: MIC against H. influenzae strains (Table M8); details: for MIC: Haemophilus influenzae
From the text: as §1

S. aureus strains = test: MIC against S. aureus strains (Table M7); details: for MIC: Staphylococcus aureus
From the text: as §1

E. faecalis strains = test: MIC against E. faecalis strains (Table M8); details: for MIC: Enterococcus faecalis, E. faecalis 29212
K. pneumoniae strains = test: MIC against K. pneumoniae strains (Table M8); details: for MIC: Klebsiella pneumoniae, K. pneumoniae 10031
[1] = S. pneumoniae 160, read-out: MIC S. pneumonae (160)
[2] = S. pneumoniae 1509, read-out: MIC S. pneumoniae (1509)
[3] = S. pneumoniae 1533, read-out: MIC S. pneumoniae (1533)
[4] = S. pneumoniae 1537, read-out: MIC S. pneumoniae (1537)
[5] = S. pneumoniae 49619, read-out: MIC S. pneumoniae (49619)
[6] = H. influenzae 49247, read-out: MIC H. influenzae (49247)
[7] = H. influenzae 49766, read-out: MIC H. influenzae (49766)
[8] = ATCC29213, S. aureus ATCC 29213, read-out: MIC S. aureus (ATCC 29213)
[9] = S. aureus 183, read-out: MIC S. aureus (183)
[10] = S. aureus 506, read-out: MIC S. aureus (506)
[11] = S. aureus 1708, read-out: MIC S. aureus (1708)
[12] = USA300, S. aureus USA300, read-out: MIC S. aureus (USA300)

## CC[C@H]1OC(=O)[C@H](C)C(=O)[C@H](C)[C@@H](O[C@@H]2OC(C)CC(N(C)C)C2O)[C@](CCO)(OC)C[C@@H](C)CN[C@H](C)[C@H]2N(CCCCn3cc(-c4cccc(N)c4)nn3)C(=O)O[C@]12C (stereo partly drawn) [FSM-21422]
E. coli strains
  MIC: 32 µg/mL (≈ 37.3 µM)
A. baumannii strains
  MIC: > 32 µg/mL
S. pneumoniae strains; [1]
  MIC: 4 µg/mL (≈ 4.66 µM)
S. pneumoniae strains; [2]
  MIC: > 32 µg/mL
S. pneumoniae strains; [3]
  MIC: > 32 µg/mL
S. pneumoniae strains; [4]
  MIC: > 32 µg/mL
S. pneumoniae strains; [5]
  MIC: 1 µg/mL (≈ 1.17 µM)
H. influenzae strains; [6]
  MIC: 8 µg/mL (≈ 9.32 µM)
H. influenzae strains; [7]
  MIC: 16 µg/mL (≈ 18.6 µM)
S. aureus strains; [8]
  MIC: > 32 µg/mL
S. aureus strains; [9]
  MIC: > 32 µg/mL
S. aureus strains; [10]
  MIC: > 32 µg/mL
S. aureus strains; [11]
  MIC: > 32 µg/mL
S. aureus strains; [12]
  MIC: > 32 µg/mL
E. faecalis strains
  MIC: 16 µg/mL (≈ 18.6 µM)
K. pneumoniae strains
  MIC: 8 µg/mL (≈ 9.32 µM)

## C=CC[C@@]1(OC)C[C@@H](C)CN[C@H](C)[C@H]2N(CCCCn3cc(-c4ccccn4)nn3)C(=O)O[C@]2(C)[C@@H](CC)OC(=O)[C@H](C)C(=O)[C@H](C)[C@H]1O[C@@H]1OC(C)CC(N(C)C)C1O (stereo partly drawn) [FSM-21423]
E. coli strains
  MIC: 32 µg/mL (≈ 38.1 µM)
A. baumannii strains
  MIC: > 32 µg/mL
S. pneumoniae strains; S. pneumoniae 160
  MIC S. pneumonae (160): 0.25 µg/mL (≈ 0.298 µM)
S. pneumoniae strains; S. pneumoniae 49619
  MIC S. pneumoniae (49619): 1 µg/mL (≈ 1.19 µM)
S. pneumoniae strains; [2]
  MIC: > 32 µg/mL
S. pneumoniae strains; [3]
  MIC: > 32 µg/mL
S. pneumoniae strains; [4]
  MIC: > 32 µg/mL
H. influenzae strains; H. influenzae 49247
  MIC H. influenzae (49247): 2 µg/mL (≈ 2.38 µM)
H. influenzae strains; [7]
  MIC: 16 µg/mL (≈ 19 µM)
S. aureus strains; [8]
  MIC: 16 µg/mL (≈ 19 µM)
S. aureus strains; [9]
  MIC: > 32 µg/mL
S. aureus strains; [10]
  MIC: > 32 µg/mL
S. aureus strains; [11]
  MIC: 32 µg/mL (≈ 38.1 µM)
S. aureus strains; [12]
  MIC: 16 µg/mL (≈ 19 µM)
E. faecalis strains
  MIC E. faecalis (29212): 4 µg/mL (≈ 4.76 µM)
K. pneumoniae strains
  MIC K. pneumoniae (10031): 8 µg/mL (≈ 9.52 µM)

## CC[C@H]1OC(=O)[C@H](C)C(=O)[C@H](C)[C@@H](O[C@@H]2OC(C)CC(N(C)C)C2O)[C@](C)(OC)CC(C)(F)CN[C@H](C)[C@H]2N(CCCCn3cc(-c4cccc(N)c4)nn3)C(=O)O[C@]12C (stereo partly drawn) [FSM-30686]
E. coli strains
  MIC: 32 µg/mL (≈ 37.8 µM)
A. baumannii strains
  MIC: > 32 µg/mL
S. pneumoniae strains; [1]
  MIC: 0.5 µg/mL (≈ 0.591 µM)
S. pneumoniae strains; [2]
  MIC: 4 µg/mL (≈ 4.73 µM)
S. pneumoniae strains; [3]
  MIC: > 32 µg/mL
S. pneumoniae strains; [4]
  MIC: > 32 µg/mL
S. pneumoniae strains; [5]
  MIC: 0.25 µg/mL (≈ 0.295 µM)
H. influenzae strains; [6]
  MIC: 2 µg/mL (≈ 2.36 µM)
H. influenzae strains; [7]
  MIC: 8 µg/mL (≈ 9.46 µM)
S. aureus strains; [8]
  MIC: 8 µg/mL (≈ 9.46 µM)
S. aureus strains; [9]
  MIC: > 32 µg/mL
S. aureus strains; [10]
  MIC: > 32 µg/mL
S. aureus strains; [11]
  MIC: 4 µg/mL (≈ 4.73 µM)
S. aureus strains; [12]
  MIC: 8 µg/mL (≈ 9.46 µM)
E. faecalis strains
  MIC: 0.5 µg/mL (≈ 0.591 µM)
K. pneumoniae strains
  MIC: 8 µg/mL (≈ 9.46 µM)

## CC[C@H]1OC(=O)[C@H](C)C(=O)[C@H](C)[C@@H](O[C@@H]2OC(C)CC(N(C)C)C2O)[C@](C)(OC)CC(C)N[C@H](C)[C@H]2N(CCCCn3cc(-c4cccc(N)c4)nn3)C(=O)O[C@]12C (stereo partly drawn) [FSM-30690]
E. coli strains; E. coli ATCC 25922
  MIC E. coli (ATCC 25922): >32 µg/mL
A. baumannii strains; A. baumannii BAA747-1
  MIC A. baumannii (BAA747-1): >32 µg/mL
S. pneumoniae strains; S. pneumoniae 160
  MIC S. pneumonae (160): >32 µg/mL
S. pneumoniae strains; S. pneumoniae 1509
  MIC S. pneumoniae (1509): >32 µg/mL
S. pneumoniae strains; S. pneumoniae 1533
  MIC S. pneumoniae (1533): >32 µg/mL
S. pneumoniae strains; S. pneumoniae 1537
  MIC S. pneumoniae (1537): >32 µg/mL
S. pneumoniae strains; S. pneumoniae 49619
  MIC S. pneumoniae (49619): >32 µg/mL
H. influenzae strains; H. influenzae 49247
  MIC H. influenzae (49247): >32 µg/mL
H. influenzae strains; H. influenzae 49766
  MIC H. influenzae (49766): >32 µg/mL
S. aureus strains; S. aureus 183
  MIC S. aureus (183): >32 µg/mL
S. aureus strains; S. aureus 506
  MIC S. aureus (506): >32 µg/mL
S. aureus strains; S. aureus 1708
  MIC S. aureus (1708): >32 µg/mL
S. aureus strains; S. aureus ATCC 29213
  MIC S. aureus (ATCC 29213): >32 µg/mL
S. aureus strains; S. aureus USA300
  MIC S. aureus (USA300): >32 µg/mL
E. faecalis strains
  MIC E. faecalis (29212): >32 µg/mL
K. pneumoniae strains
  MIC K. pneumoniae (10031): >32 µg/mL

## CC[C@H]1OC(=O)C(C)(F)C(=O)[C@H](C)[C@@H](O[C@@H]2OC(C)CC(N(C)C)C2O)[C@](C)(OC)CC(C)(F)CN[C@H](C)[C@H]2N(CCCCn3cc(-c4cccc(N)c4)nn3)C(=O)O[C@]12C (stereo partly drawn) [FSM-30704]
E. coli strains
  MIC: 32 µg/mL (≈ 37 µM)
A. baumannii strains
  MIC: > 32 µg/mL
S. pneumoniae strains; [1]
  MIC: 0.25 µg/mL (≈ 0.289 µM)
S. pneumoniae strains; [2]
  MIC: 1 µg/mL (≈ 1.16 µM)
S. pneumoniae strains; [3]
  MIC: > 32 µg/mL
S. pneumoniae strains; [4]
  MIC: > 32 µg/mL
S. pneumoniae strains; [5]
  MIC: 0.25 µg/mL (≈ 0.289 µM)
H. influenzae strains; [6]
  MIC: 2 µg/mL (≈ 2.31 µM)
H. influenzae strains; [7]
  MIC: 8 µg/mL (≈ 9.26 µM)
S. aureus strains; [8]
  MIC: 2 µg/mL (≈ 2.31 µM)
S. aureus strains; [9]
  MIC: > 32 µg/mL
S. aureus strains; [10]
  MIC: > 32 µg/mL
S. aureus strains; [11]
  MIC: 2 µg/mL (≈ 2.31 µM)
S. aureus strains; [12]
  MIC: 4 µg/mL (≈ 4.63 µM)
E. faecalis strains
  MIC: 0.5 µg/mL (≈ 0.579 µM)
K. pneumoniae strains
  MIC: 16 µg/mL (≈ 18.5 µM)

## CC[C@H]1OC(=O)[C@H](CC#N)C(=O)[C@H](C)[C@@H](O[C@@H]2OC(C)CC(N(C)C)C2O)[C@](C)(OC)C[C@@H](C)CN[C@H](C)[C@H]2N(CCCCn3cc(-c4cccc(N)c4)nn3)C(=O)O[C@]12C (stereo partly drawn) [FSM-56160]
E. coli strains
  MIC: > 32 µg/mL
A. baumannii strains
  MIC: > 32 µg/mL
S. pneumoniae strains; [1]
  MIC: 2 µg/mL (≈ 2.34 µM)
S. pneumoniae strains; [2]
  MIC: > 32 µg/mL
S. pneumoniae strains; [3]
  MIC: > 32 µg/mL
S. pneumoniae strains; [4]
  MIC: > 32 µg/mL
S. pneumoniae strains; [5]
  MIC: 16 µg/mL (≈ 18.8 µM)
H. influenzae strains; [6]
  MIC: 8 µg/mL (≈ 9.38 µM)
H. influenzae strains; [7]
  MIC: 32 µg/mL (≈ 37.5 µM)
S. aureus strains; [8]
  MIC: > 32 µg/mL
S. aureus strains; [9]
  MIC: > 32 µg/mL
S. aureus strains; [10]
  MIC: > 32 µg/mL
S. aureus strains; [11]
  MIC: > 32 µg/mL
S. aureus strains; [12]
  MIC: > 32 µg/mL
E. faecalis strains
  MIC: 8 µg/mL (≈ 9.38 µM)
K. pneumoniae strains
  MIC: 8 µg/mL (≈ 9.38 µM)
